# In ChEMBL document CHEMBL4715869, “N-(Pyrimidin-2-yl)-1,2,3,4-tetrahydroisoquinolin-6-amine Derivatives as Selective Janus Kinase 2 Inhibitors for the Treatment of Myeloproliferative Neoplasms” (J Med Chem, 2020):
# Activity calls are given as the source filed them. No cut-off for these calls is given here.
# Tests used:
# SET-2 [1] = assay: Induction of cell cycle arrest in human SET2 cells assessed as accumulation at G0/G1 phase incubated for 24 hrs by propidium iodide staining based flow cytometry; type: functional; settings: dose 10-160 nM
# [2] = target: T1, Tyrosine-protein kinase JAK3 (Homo sapiens, UniProt P52333); assay: Inhibition of recombinant human JAK3 (781 to end residues) using GGEEEEYFELVKKKK as substrate measured after 40 mins in presence of [gamm33P]ATP by scintillation counting method
# T1 sequence (P52333 whole entry): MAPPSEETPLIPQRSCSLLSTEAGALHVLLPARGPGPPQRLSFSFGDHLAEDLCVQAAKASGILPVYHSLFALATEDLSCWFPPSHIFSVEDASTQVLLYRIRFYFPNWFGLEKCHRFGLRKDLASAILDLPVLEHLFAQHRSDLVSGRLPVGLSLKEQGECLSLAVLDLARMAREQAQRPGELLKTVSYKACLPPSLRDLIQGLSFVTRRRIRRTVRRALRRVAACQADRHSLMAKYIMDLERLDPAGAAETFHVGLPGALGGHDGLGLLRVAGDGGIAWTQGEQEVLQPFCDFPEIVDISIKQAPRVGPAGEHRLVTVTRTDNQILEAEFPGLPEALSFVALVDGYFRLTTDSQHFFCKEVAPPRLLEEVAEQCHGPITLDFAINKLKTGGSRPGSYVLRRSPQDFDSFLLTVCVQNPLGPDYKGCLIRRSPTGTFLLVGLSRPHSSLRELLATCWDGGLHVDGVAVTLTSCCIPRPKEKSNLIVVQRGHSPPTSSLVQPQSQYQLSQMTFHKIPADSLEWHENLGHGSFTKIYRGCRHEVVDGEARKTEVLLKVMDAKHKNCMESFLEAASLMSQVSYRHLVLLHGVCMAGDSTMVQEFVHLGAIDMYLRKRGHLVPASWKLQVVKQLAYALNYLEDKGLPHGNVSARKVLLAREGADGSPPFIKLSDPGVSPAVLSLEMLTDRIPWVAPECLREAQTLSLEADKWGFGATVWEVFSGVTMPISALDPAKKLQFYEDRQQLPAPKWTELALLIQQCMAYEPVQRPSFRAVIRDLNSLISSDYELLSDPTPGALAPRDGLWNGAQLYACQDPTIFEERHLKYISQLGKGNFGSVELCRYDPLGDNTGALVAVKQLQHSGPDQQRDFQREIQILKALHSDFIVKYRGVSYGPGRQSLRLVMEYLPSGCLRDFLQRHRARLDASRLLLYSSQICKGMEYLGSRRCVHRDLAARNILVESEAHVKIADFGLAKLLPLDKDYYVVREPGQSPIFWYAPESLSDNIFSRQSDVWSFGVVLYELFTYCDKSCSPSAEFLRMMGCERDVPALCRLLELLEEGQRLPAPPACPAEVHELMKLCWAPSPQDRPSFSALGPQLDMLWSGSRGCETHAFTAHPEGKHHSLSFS
# [3] = Selectivity index, ratio of IC50 for inhibition of recombinant human JAK3 (781 to end residues) to IC50 for inhibition of recombinant human JAK2 (808 to end residues)
# [4] = Selectivity index, ratio of IC50 for inhibition of recombinant human FLT3 D835Y mutant (564 to end residues) to IC50 for inhibition of recombinant human JAK2 (808 to end residues)
# SET-2 [5] = assay: Induction of apoptosis in human SET-2 cells assessed as late apoptotic cells at 0.4 uM incubated for 24 hrs by Annexin V/PI staining based flow cytometric analysis (reference value: 1.52%); type: functional
# SET-2 [6] = assay: Induction of apoptosis in human SET-2 cells assessed as live cells at 1.6 uM incubated for 24 hrs by Annexin V/PI staining based flow cytometric analysis (reference value: 96.23 %); type: functional
# SET-2 [7] = assay: Induction of apoptosis in human SET-2 cells assessed as early apoptotic cells at 1.6 uM incubated for 24 hrs by Annexin V/PI staining based flow cytometric analysis (reference value: 1.47 %); type: functional
# [8] = test system: Tyrosine-protein kinase JAK2 (Homo sapiens), O60674 [V617F]; assay: Inhibition of JAK2 V617F mutant in human SET-2 cells assessed as reduction in STAT5 phosphorylation after 2 hrs by Western blot analysis; type: cell-based; settings: SET2, dose 1-1000 nM
# Chain of Tyrosine-protein kinase JAK2 (Homo sapiens), O60674 [V617F] (O60674 whole entry V617F): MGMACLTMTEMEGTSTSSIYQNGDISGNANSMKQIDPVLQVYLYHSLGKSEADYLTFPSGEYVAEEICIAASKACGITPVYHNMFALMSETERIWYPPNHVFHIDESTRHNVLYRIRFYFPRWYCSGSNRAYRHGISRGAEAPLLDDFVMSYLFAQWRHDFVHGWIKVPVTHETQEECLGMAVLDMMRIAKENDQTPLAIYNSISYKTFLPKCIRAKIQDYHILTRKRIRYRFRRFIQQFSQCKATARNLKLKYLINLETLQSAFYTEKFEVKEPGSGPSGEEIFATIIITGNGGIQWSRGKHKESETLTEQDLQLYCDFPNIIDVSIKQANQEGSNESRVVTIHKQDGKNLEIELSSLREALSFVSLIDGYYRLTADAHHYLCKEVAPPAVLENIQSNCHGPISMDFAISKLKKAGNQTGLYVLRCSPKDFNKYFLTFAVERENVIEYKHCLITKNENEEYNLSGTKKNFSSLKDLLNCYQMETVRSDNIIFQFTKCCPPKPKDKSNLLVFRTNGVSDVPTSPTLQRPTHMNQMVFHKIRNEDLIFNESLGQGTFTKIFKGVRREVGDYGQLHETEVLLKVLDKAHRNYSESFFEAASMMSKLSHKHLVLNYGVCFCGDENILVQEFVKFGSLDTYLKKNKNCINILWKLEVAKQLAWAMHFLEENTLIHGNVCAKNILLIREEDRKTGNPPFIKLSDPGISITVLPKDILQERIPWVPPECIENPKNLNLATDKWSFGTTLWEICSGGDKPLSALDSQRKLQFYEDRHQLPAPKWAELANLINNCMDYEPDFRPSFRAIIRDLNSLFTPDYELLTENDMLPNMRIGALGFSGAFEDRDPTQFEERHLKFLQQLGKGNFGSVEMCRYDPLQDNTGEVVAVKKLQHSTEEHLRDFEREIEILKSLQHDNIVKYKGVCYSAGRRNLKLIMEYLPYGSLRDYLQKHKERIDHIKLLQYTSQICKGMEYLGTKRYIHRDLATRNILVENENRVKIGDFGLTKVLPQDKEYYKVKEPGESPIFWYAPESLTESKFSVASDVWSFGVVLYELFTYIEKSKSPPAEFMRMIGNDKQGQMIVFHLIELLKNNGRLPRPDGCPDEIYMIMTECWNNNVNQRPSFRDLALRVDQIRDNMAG
# [9] = target: Receptor-type tyrosine-protein kinase FLT3 (Homo sapiens) (UniProt P36888); assay: Inhibition of FLT3 in human SET2 cells assessed as decrease in FLT3 phosphorylation at 1 to 1000 nM after 2 hrs by Western blot analysis; type: cell-based; settings: dose 1-1000 nM
# Chain of Receptor-type tyrosine-protein kinase FLT3 (Homo sapiens) (P36888 whole entry): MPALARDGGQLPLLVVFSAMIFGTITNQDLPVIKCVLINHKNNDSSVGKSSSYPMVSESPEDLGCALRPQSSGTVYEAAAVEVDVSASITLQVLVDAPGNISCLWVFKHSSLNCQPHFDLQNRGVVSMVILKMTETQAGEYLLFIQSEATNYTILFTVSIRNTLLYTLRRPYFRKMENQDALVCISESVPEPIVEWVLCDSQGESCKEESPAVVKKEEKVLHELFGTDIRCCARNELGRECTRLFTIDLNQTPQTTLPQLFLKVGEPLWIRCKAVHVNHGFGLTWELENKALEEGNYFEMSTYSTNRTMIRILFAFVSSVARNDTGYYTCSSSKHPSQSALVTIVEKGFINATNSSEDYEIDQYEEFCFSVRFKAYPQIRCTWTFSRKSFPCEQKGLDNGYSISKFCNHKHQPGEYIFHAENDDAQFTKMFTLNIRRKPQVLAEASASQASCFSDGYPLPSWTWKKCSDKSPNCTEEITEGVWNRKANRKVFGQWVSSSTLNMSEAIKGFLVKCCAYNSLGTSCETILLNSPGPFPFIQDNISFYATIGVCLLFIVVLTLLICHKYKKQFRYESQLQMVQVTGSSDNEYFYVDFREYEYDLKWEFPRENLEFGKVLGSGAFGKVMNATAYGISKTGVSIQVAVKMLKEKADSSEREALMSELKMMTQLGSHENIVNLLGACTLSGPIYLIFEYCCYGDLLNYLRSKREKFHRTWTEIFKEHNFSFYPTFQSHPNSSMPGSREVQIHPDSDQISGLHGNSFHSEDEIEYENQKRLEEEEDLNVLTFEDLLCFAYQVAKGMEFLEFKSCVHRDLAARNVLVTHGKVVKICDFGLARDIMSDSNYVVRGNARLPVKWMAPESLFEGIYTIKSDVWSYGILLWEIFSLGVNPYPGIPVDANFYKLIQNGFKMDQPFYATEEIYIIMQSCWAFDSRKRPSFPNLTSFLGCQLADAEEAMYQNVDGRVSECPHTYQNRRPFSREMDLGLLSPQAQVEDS
# [10] = target: T2, Signal transducer and transcription activator 6 (Mus musculus) (UniProt P52633); assay: Inhibition of STAT6 phosphorylation in mouse BAF3 cells at 1000 nM after 2 hrs by Western blot analysis; type: cell-based
# T2 sequence (whole entry): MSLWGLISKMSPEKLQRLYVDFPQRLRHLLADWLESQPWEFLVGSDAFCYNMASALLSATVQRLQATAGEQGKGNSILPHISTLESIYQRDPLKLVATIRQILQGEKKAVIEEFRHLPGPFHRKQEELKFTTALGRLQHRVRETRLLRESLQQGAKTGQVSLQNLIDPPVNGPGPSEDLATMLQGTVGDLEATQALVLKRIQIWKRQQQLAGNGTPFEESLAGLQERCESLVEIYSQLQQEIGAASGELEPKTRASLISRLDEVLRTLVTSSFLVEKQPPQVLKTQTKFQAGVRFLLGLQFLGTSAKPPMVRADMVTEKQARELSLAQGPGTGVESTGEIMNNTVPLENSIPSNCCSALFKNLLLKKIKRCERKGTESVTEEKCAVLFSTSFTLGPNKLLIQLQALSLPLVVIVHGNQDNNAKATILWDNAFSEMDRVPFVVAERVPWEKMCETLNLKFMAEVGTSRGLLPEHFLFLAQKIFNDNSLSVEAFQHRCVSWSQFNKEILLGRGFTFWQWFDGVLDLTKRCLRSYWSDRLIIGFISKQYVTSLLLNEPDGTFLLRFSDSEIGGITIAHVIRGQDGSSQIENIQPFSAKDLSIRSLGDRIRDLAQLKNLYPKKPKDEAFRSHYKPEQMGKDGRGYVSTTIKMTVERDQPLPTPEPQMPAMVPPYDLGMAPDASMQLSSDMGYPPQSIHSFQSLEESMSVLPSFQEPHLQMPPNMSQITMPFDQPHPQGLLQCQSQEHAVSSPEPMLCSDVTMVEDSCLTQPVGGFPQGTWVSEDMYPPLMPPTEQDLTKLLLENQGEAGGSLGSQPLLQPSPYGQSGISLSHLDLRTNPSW
# Mus musculus = assay: In vivo inhibition of JAK2 V617F mutant in mouse BAF3 cells xenografted Balb/c nude mouse assessed as decrease in STAT5 phosphorylation in spleen at 30 to 60 mg/kg, po qd administered starting from day 4 to 20 and measured on day 25 by Western blot analysis; type: functional, organism-based; settings: dose 30-60 mg/kg, time 21.0 day
# BaF3 = assay: Antitumor activity against mouse BAF3 cells harboring JAK2 V617F mutant implanted in Balb/c mouse assessed as decrease in liver weight at 60 mg/kg, po qd administered starting from day 4 to 20 and measured on day 25 relative to control; type: functional; set-up: scale not given: the % may be the effect or the level left; settings: time 21 day
smiles,measurement,setting,value
Cc1cnc(Nc2ccc3c(c2)CCN(C(=O)/C=C/CN(C)C)C3)nc1-c1cnn(C(C)C)c1,Activity,SET-2 [1],Dose-dependent effect
same,IC50,[2],94 nM
same,Ratio IC50,[3],31
same,Ratio IC50,[4],20.7
same,Activity,SET-2 [5],8.68%
same,Activity,SET-2 [6],23.03%
same,Activity,SET-2 [7],27.3%
same,inhibition,[8],Dose-dependent effect
same,inhibition,[9],inactive
same,inhibition,[10],inactive
same,inhibition,Mus musculus,Active
same,Activity,BaF3,66.3%
